The source of these data is patent US4772691A, “Chemically cleavable nucleotides” (The Medical College of Wisconsin, Inc., priority 1985, dated 1988).

One data set deals with avidin. The note with it: compared with avidin-biotin; cited from earlier work.
Data set [1] in a line: HPLC of Bio-SS-dUTP in presence of 2-mercaptoethanol (disulfide cleavage). It is filed as physicochemical. The note with it: 5 mM 2-mercaptoethanol immediately before HPLC. As to the method:
It was not necessary to further purify the AA-dUTP by HPLC at this stage in the synthesis. Instead, 2.0 μmol of AA-dUTP in 200 μl of 0.1 M sodium borate (pH 8.5) was added directly to 2.0 μmol of sulfo-NHS-SS-biotin. The reaction was allowed to proceed at room temperature for 1 to 2 hr. The resulting Bio-SS-dUTP was purified by ion-pair reversed-phase HPLC using a Bio-Sil ODS-5S column (250×4 mm; Bio-Rad). Aliquots of the reaction (100 μl) were adjusted to 50 mM Et3 NHCO3 (pH 7.5) and 10% acetonitrile, diluted to 500 μl with the same buffer, and applied to the column at a flow rate of 0.5 ml/min (1600 psi). Bio-SS-dUTP was eluted isocratically with 50 mM Et3 NHCO3 (pH 7.5) and 10% acetonitrile. Column fractions containing Bio-SS-dUTP were pooled, rotary evaporated, resuspended in 10 mM Tris HCl (pH 7.5); and stored at -80° C. From 2.0 μmol of AA-dUTP, 1.0-1.6 μmol of Bio-SS-dUTP can be obtained by this procedure.
An identical aliquot of the Bio-SS-dUTP reaction was supplemented with 2-mercaptoethanol to a final concentration of 5 mM immediately prior to its application and chromatography on HPLC. […] Instead, there was a corresponding increase in the material eluting from the column with the solvent breakthrough (3.3 min). […]

The target of another data set is E. coli DNA polymerase I (Escherichia coli, UniProt P00582). Kind of data set: nick-translation reaction, incorporation of [32P]dCTP into 145-bp DNA. It is filed as biochemical. Conditions: for rate of nick-translation reaction relative to TTP: 20 μM nucleotide, relative to equal concentration of TTP. As to the method:
Nick-Translation Reactions. Nucleosome length DNA fragments [145 base pairs (bp)]were purified from monomer nucleosomes prepared by micrococcal nuclease digestion of chicken erythrocyte nuclei followed by fractionation on an agarose A-5m column (2). Four microgram aliquots of 145-bp DNA fragments in 0.1 ml of 50 mM Tris-HCl, pH 7.5/5 mM MgCl2 /50 μg of bovine serum albumin per ml were nicktranslated (3) in the presence of 20 μM dATP and dGTP, 20 μM [^32 P]dCTP (2-5 μCi/nmol; 1 Ci =37 GBq), and either dTTP, Bio-4-dUTP, or Bio-SS-dUTP as indicated. 2-Mercaptoethanol was eliminated from the nick-translation buffer to preserve the Bio-SS-dUTP. DNase I (0.01 ng per 0.1 ml of reaction mixture) was added to the reaction, which was then incubated for 5 min at 15° C. prior to the addition of E. coli DNA polymerase I (4 units per 0.1 ml of reaction mixture).
Bio-SS-dUTP Is a Substrate for E. coli DNA Polymerase. To determine whether Bio-SS-dUTP could serve as a substrate for E. coli DNA polymerase I, its incorporation into DNA in a nick-translation reaction was measured. The incorporation of [^32 P ]dCTP into purified nucleosome-length DNA fragments (145 bp) in the presence of 20 μM dATP, dGTP, dCTP, and either the normal nucleotide, TTP, or one of three biotinylated nucleotide analogs was measured. Bio-SS-dUTP was capable of supporting the nick-translation reaction at 35%-40% the rate observed with an equal concentration of TTP. […] If no TTP is present with the biotinylated nucleotides in the nick-translation reaction, the newly synthesized DNA is very heavily biotinylated. To reduce this level of modification, the nick-translation reactions can be performed in the presence of μM/10TTP/10 μM Bio-SS-dUTP.

Sequence of E. coli DNA polymerase I (P00582 whole entry, the tested form may be a part): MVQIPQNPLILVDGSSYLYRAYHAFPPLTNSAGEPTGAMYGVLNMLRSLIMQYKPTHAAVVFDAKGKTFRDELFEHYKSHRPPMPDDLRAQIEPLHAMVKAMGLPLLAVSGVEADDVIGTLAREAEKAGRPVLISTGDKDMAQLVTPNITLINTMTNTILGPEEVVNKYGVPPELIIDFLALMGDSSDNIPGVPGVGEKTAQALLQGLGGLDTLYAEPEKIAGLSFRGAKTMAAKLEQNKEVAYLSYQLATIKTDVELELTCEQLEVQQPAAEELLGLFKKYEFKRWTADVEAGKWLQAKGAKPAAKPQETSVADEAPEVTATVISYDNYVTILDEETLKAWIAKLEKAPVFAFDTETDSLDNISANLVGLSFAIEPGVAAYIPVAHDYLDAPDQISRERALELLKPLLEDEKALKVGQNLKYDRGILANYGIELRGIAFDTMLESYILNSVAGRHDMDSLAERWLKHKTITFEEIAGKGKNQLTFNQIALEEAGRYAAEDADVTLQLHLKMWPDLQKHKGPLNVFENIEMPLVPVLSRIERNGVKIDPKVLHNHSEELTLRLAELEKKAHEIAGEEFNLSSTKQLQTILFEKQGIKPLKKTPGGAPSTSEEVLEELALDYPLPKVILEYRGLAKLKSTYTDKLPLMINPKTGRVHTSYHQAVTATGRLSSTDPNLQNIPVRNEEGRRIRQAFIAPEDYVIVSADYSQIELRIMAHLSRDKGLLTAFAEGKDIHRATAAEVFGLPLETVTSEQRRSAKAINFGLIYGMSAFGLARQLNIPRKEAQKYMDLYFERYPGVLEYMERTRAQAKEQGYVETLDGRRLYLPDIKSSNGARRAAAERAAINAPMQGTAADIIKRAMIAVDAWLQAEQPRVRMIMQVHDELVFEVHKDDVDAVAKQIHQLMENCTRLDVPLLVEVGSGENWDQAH

For the compound `N=C1N[C@H]2[C@H](CS[C@H]2CCCCC(=O)O)N1` [2-iminobiotin], the “strength of avidin-iminobiotin interaction” value in the data set on avidin was “not nearly as strong as that of avidin-biotin”.
For `O=C(CCSSCCNC(=O)CCCC[C@@H]1SC[C@@H]2NC(=O)N[C@@H]21)NCC=Cc1cn([C@H]2C[C@H](O)[C@@H](COP(=O)(O)OP(=O)(O)OP(=O)(O)O)O2)c(=O)[nH]c1=O` [Bio-SS-dUTP], the “intact compound after 2-mercaptoethanol (HPLC)” value in data set [1] is reported as “no UV-absorbing material eluted from the column with the retention time expected for intact Bio-SS-dUTP”. Also, the “rate of nick-translation reaction in mixture with TTP” value at E. coli DNA polymerase I (10 μM TTP/10 μM Bio-SS-dUTP versus 20 μM TTP alone) is reported as “only slightly slower”. Also, the “rate of nick-translation reaction relative to TTP” value at E. coli DNA polymerase I is listed as 35%-40%. In addition, the “residues incorporated per nucleosome-length fragment” value on E. coli DNA polymerase I (nick-translated with equal concentrations of TTP and Bio-SS-dUTP) is reported as 2-5 residues per nucleosome-length fragment. Also, the “substrate for E. coli DNA polymerase” value on E. coli DNA polymerase I (nick-translation) is reported as “good substrate”.
Take `O=C(CCCC[C@@H]1SC[C@@H]2NC(=O)N[C@@H]21)NCC=Cc1cn([C@H]2C[C@H](O)[C@@H](COP(=O)(O)OP(=O)(O)OP(=O)(O)O)O2)c(=O)[nH]c1=O` [Bio-4-dUTP, reference compound]: the “rate of nick-translation reaction relative to TTP” value at E. coli DNA polymerase I came to 60%.
